Measured values taken from the NIST ThermoML archive (doi:10.1016/j.jct.2019.05.015).
Where “and” joins values, the source holds several entries; their conditions need not be identical. Identical values can stand only once. ± gives the expanded uncertainty stated by the source.

Assays:
[1] = Molar enthalpy of transition or fusion; conditions: Crystal; DSC
[2] = molar heat capacity at constant pressure; conditions: 101.33 kPa, DSC
[3] = for Normal melting temperature: Crystal, DTA; for Glass transition temperature: DSC

Oc1ccc2c(O)cccc2c1 [1,6-dihydroxynaphthalene]
Conditions | Glass transition temperature [°C] | Molar enthalpy of transition or fusion [kcal/mol] | Normal melting temperature [°C]
[1] | – | 6.17 ± 0.186 | –
[3] | 32 ± 2 | – | 137.1 ± 0.4

[2]
Conditions | molar heat capacity at constant pressure
218 K, Glass | 131.4 ± 6.5 J/K/mol
238 K, Glass | 147.4 ± 7.1 J/K/mol
243 K, Crystal | 149.1 ± 6.1 J/K/mol
258 K, Glass | 163.5 ± 7.7 J/K/mol
263 K, Crystal | 161.4 ± 6.6 J/K/mol
283 K, Crystal | 173.7 ± 7.1 J/K/mol
303 K, Crystal | 186 ± 7.6 J/K/mol
323 K, Crystal | 197.9 ± 7.7 J/K/mol and 198.4 ± 8 J/K/mol
323 K, Metastable liquid | 311.2 ± 14 J/K/mol
343 K, Crystal | 210.6 ± 8.2 J/K/mol and 210.7 ± 8.4 J/K/mol
343 K, Metastable liquid | 315.6 ± 14 J/K/mol
363 K, Crystal | 223.2 ± 8.6 J/K/mol and 223 ± 8.8 J/K/mol
363 K, Metastable liquid | 319.9 ± 15 J/K/mol
383 K, Crystal | 235.9 ± 9.1 J/K/mol
383 K, Metastable liquid | 324.3 ± 15 J/K/mol
403 K, Metastable liquid | 328.7 ± 15 J/K/mol

Oc1cccc(O)c1 [1,3-benzenediol]
Conditions | Molar enthalpy of transition or fusion [kcal/mol] | Normal melting temperature [°C]
[1] | 4.82 ± 0.112 | –
[3] | – | 109.1 ± 0.4

molar heat capacity at constant pressure [J/K/mol], [2]
Conditions | 233 K | 253 K | 273 K | 293 K | 303 K | 313 K | 323 K | 333 K | 343 K | 363 K
Crystal | 103.9 ± 4.2 | 114.4 ± 4.6 | 124.9 ± 4.9 | 135.3 ± 5.3 | – | 145.8 ± 5.7 | – | 156.3 ± 6.1 | – | –
Metastable liquid | – | – | – | – | 237.2 ± 9.7 | – | 245.8 ± 10 | – | 254.3 ± 10 | 262.9 ± 11

Nc1cccc2ccccc12 [1-naphthalenamine]
Conditions | Molar enthalpy of transition or fusion [kcal/mol] | Normal melting temperature [°C]
[1] | 3.46 ± 0.11 | –
[3] | – | 48.2 ± 0.4

Oc1cccc2ccccc12 [1-naphthol]
Conditions | Molar enthalpy of transition or fusion [kcal/mol] | Normal melting temperature [°C]
[1] | 5.23 ± 0.12 | –
[3] | – | 94.8 ± 0.4

Oc1ccc2ccccc2c1 [2-hydroxynaphthalene]
Conditions | Molar enthalpy of transition or fusion [kcal/mol] | Normal melting temperature [°C]
[1] | 5.35 ± 0.139 | –
[3] | – | 121.2 ± 0.4

Nc1cccc(N)c1 [1,3-benzenediamine]
Conditions | Glass transition temperature [°C] | Molar enthalpy of transition or fusion [kcal/mol] | Normal melting temperature [°C]
[1] | – | 3.71 ± 0.141 | –
[3] | -29 ± 2 | – | 63.0 ± 0.4

[2]
Conditions | molar heat capacity at constant pressure [J/K/mol]
223 K, Crystal | 108.9 ± 5
243 K, Crystal | 121.4 ± 5.6
253 K, Metastable liquid | 207.5 ± 8.1
263 K, Crystal | 133.8 ± 6
273 K, Metastable liquid | 213.4 ± 8.3
283 K, Crystal | 146.2 ± 6.5
293 K, Metastable liquid | 219.3 ± 8.5
303 K, Crystal | 158.7 ± 7
313 K, Metastable liquid | 225.2 ± 8.7
323 K, Metastable liquid | 229.7 ± 8.9
333 K, Metastable liquid | 231.2 ± 9
343 K, Liquid | 234 ± 9.1
353 K, Liquid | 237.1 ± 9.2
363 K, Liquid | 240.2 ± 9.3

Cc1ccc(O)cc1 [4-methylphenol]
Conditions | Molar enthalpy of transition or fusion [kcal/mol] | Normal melting temperature [°C]
[1] | 2.81 ± 0.108 | –
[3] | – | 34.8 ± 0.4

Nc1ccc(Cl)cc1 [4-chlorobenzenamine]
Conditions | Molar enthalpy of transition or fusion [kcal/mol] | Normal melting temperature [°C]
[1] | 4.71 ± 0.196 | –
[3] | – | 70 ± 0.4

Nc1ccc2ccccc2c1 [2-naphthalenamine]
Conditions | Molar enthalpy of transition or fusion [kcal/mol] | Normal melting temperature [°C]
[1] | 5.32 ± 0.134 | –
[3] | – | 109.5 ± 0.4
